Entries after “also recorded” stand apart in the source; their conditions may differ. Read-outs that look alike come from different tables or passages of the source.
Tests used:
[1] = test system: L276I FKRP mutant mice; test: Efficacy in L276I FKRP mutant mouse model; assay type: in vivo
Description: The more common LGMD2i FKRP L276I mutation was studied in a murine model of disease. […] Total running time was increased in these dosing groups (FIG. 7C).
The effect of ribitol on an additional model of LGMD2i was evaluated in mice with the L276I FKRP mutation. L276I mutant mice were treated with ribitol at single daily doses of 0.5 g/kg, 2 g/kg, 5 g/kg, and 5 g/kg BID by oral gavage from the age of 8 weeks when the mild dystrophic phenotype is detectable. The duration of treatment was one year. Ribitol was dissolved in saline and administered by oral gavage. The same methods described above were applied to evaluate expression of matriglycan and muscle pathology.

[2] = Metabolic stability, all species; assay type: in vitro ADME, CD-1 mouse, Sprague-Dawley rat, Gottingen minipig, human; settings: incubated up to 2 hours, all four species
Description: Metabolic stability of ribitol was conducted in liver microsomes, cytosol, and primary hepatocytes, from CD-1 mouse, Sprague-Dawley rat, Gottingen minipig, and human at a concentration of ribitol of 10 μM.
Therefore, metabolism is unlikely to be a major elimination pathway of ribitol.

[3] = 28-day repeat-dose oral toxicokinetics; assay type: in vivo, Bama minipig; settings: for AUC(0-t): read-out: AUC0-24
Description: Toxicokinetics of ribitol was evaluated as part of the 28-day toxicology study in male and female Bama minipig. […] Animals in control group were dosed for 28 days twice daily with the vehicle only (Purified Water). On Days 1 and 28, blood samples were collected at 0 (pre first dose), 0.5, 1, 2, 4, 6 (pre-second dose), 6.5, 7, 8, 10, 12, and 24 hours from all available animals.

[4] = 1.0 g/kg/dose BID (2.0 g/kg/day, NOAEL), Day 28, Female
[5] = 1.0 g/kg/dose BID (2.0 g/kg/day, NOAEL), Day 28, Male

OC[C@@H](O)[C@@H](O)[C@@H](O)CO [ribitol, (2R,3s,4S)-Pentane-1,2,3,4,5-pentol]
creatine kinase ([1]; 1 year oral dosing): reduced with increasing doses | expression of matriglycan on αDG (immunohistochemistry) ([1]; 1 year oral dosing): increases in a dose dependent manner | increase in treadmill running distance ([1]; 2 g/kg/day): 14% | matriglycan expression (immunohistochemistry) ([1]; all treatment groups): increased matriglycan expression | treadmill running distance ([1]; six months, 2, 5 g/kg, 5 g/kg/dose BID, 3.3 g/kg/dose TID): trend toward improved running distance | total running time ([1]; six months, same dosing groups): increased | metabolic stability in liver microsomes, cytosol, hepatocytes [2]: stable; also recorded: not metabolized by the enzymes in the liver | AUC0-24 [3, 4]: 1980 ± 1040 µg·h/mL | Cmax [3, 4]: 281 ± 141 µg/mL | AUC0-24 [3, 5]: 2560 ± 526 µg·h/mL | Cmax [3, 5]: 475 ± 97.7 µg/mL | drug accumulation ([3]; after 28-day repeated oral administration, any dose level): no marked drug accumulation; also recorded: no apparent ribitol drug accumulation | Tmax ([3]; both sexes, Bama, minipig, plasma, oral, post dose and post second dose, Day 1 or Day 28, range): 0.5 to 2 h | AUC(0-t) ([3]; female, Bama, minipig, plasma, po, 0.1 g/kg, 0.1 g/kg/dose BID, Day 1, Female, mean ± SD): 268 ± 129 µg·h/mL | Cmax ([3]; female, Bama, minipig, plasma, po, 0.1 g/kg, 0.1 g/kg/dose BID, Day 1, Female, mean ± SD, read-out: Cmax): 39.6 ± 23.3 µg/mL | Tmax ([3]; female, Bama, minipig, plasma, po, 0.1 g/kg, 0.1 g/kg/dose BID, Day 1, Female, median (range)): 5 h | AUC(0-t) ([3]; female, Bama, minipig, plasma, po, 0.1 g/kg, 0.1 g/kg/dose BID, Day 28, Female, mean ± SD): 257 ± 82.6 µg·h/mL | Cmax ([3]; female, Bama, minipig, plasma, po, 0.1 g/kg, 0.1 g/kg/dose BID, Day 28, Female, mean ± SD, read-out: Cmax): 37.2 ± 17.8 µg/mL | Tmax ([3]; female, Bama, minipig, plasma, po, 0.1 g/kg, 0.1 g/kg/dose BID, Day 28, Female, median (range)): 7 h | AUC(0-t) ([3]; female, Bama, minipig, plasma, po, 0.3 g/kg, 0.3 g/kg/dose BID, Day 1, Female, mean ± SD): 605 ± 83.4 µg·h/mL | Cmax ([3]; female, Bama, minipig, plasma, po, 0.3 g/kg, 0.3 g/kg/dose BID, Day 1, Female, mean ± SD, read-out: Cmax): 98.4 ± 28 µg/mL | Tmax ([3]; female, Bama, minipig, plasma, po, 0.3 g/kg, 0.3 g/kg/dose BID, Day 1, Female, median (range)): 4.3 h | AUC(0-t) ([3]; female, Bama, minipig, plasma, po, 0.3 g/kg, 0.3 g/kg/dose BID, Day 28, Female, mean ± SD): 894 ± 125 µg·h/mL | Cmax ([3]; female, Bama, minipig, plasma, po, 0.3 g/kg, 0.3 g/kg/dose BID, Day 28, Female, mean ± SD, read-out: Cmax): 139 ± 40.9 µg/mL | Tmax ([3]; female, Bama, minipig, plasma, po, 0.3 g/kg, 0.3 g/kg/dose BID, Day 28, Female, median (range)): 4.3 h | AUC(0-t) ([3]; female, Bama, minipig, plasma, po, 1 g/kg, 1.0 g/kg/dose BID (2.0 g/kg/day, NOAEL), Day 28, Female): 1980 µg·h/mL | Cmax ([3]; female, Bama, minipig, plasma, po, 1 g/kg, 1.0 g/kg/dose BID (2.0 g/kg/day, NOAEL), Day 28, Female, read-out: Cmax): 281 µg/mL | AUC(0-t) ([3]; female, Bama, minipig, plasma, po, 1 g/kg, 1.0 g/kg/dose BID, Day 1, Female, mean ± SD): 1770 ± 582 µg·h/mL | Cmax ([3]; female, Bama, minipig, plasma, po, 1 g/kg, 1.0 g/kg/dose BID, Day 1, Female, mean ± SD, read-out: Cmax): 261 ± 82.4 µg/mL | Tmax ([3]; female, Bama, minipig, plasma, po, 1 g/kg, 1.0 g/kg/dose BID, Day 1, Female, median (range)): 6.8 h | Tmax ([3]; female, Bama, minipig, plasma, po, 1 g/kg, 1.0 g/kg/dose BID, Day 28, Female, median (range)): 7 h | AUC(0-t) ([3]; female, Bama, minipig, plasma, po, 2 g/kg/day, 1.0 g/kg/dose BID (2.0 g/kg/day, NOAEL), Day 28, Female): 1980 µg·h/mL | Cmax ([3]; female, Bama, minipig, plasma, po, 2 g/kg/day, 1.0 g/kg/dose BID (2.0 g/kg/day, NOAEL), Day 28, Female, read-out: Cmax): 281 µg/mL | AUC(0-t) ([3]; male, Bama, minipig, plasma, po, 0.1 g/kg, 0.1 g/kg/dose BID, Day 1, Male, mean ± SD): 210 ± 75 µg·h/mL | Cmax ([3]; male, Bama, minipig, plasma, po, 0.1 g/kg, 0.1 g/kg/dose BID, Day 1, Male, mean ± SD, read-out: Cmax): 39.8 ± 16.8 µg/mL | Tmax ([3]; male, Bama, minipig, plasma, po, 0.1 g/kg, 0.1 g/kg/dose BID, Day 1, Male, median (range)): 6.8 h | AUC(0-t) ([3]; male, Bama, minipig, plasma, po, 0.1 g/kg, 0.1 g/kg/dose BID, Day 28, Male, mean ± SD): 215 ± 68.9 µg·h/mL | Cmax ([3]; male, Bama, minipig, plasma, po, 0.1 g/kg, 0.1 g/kg/dose BID, Day 28, Male, mean ± SD, read-out: Cmax): 37.2 ± 14.2 µg/mL | Tmax ([3]; male, Bama, minipig, plasma, po, 0.1 g/kg, 0.1 g/kg/dose BID, Day 28, Male, median (range)): 3.8 h | AUC(0-t) ([3]; male, Bama, minipig, plasma, po, 0.3 g/kg, 0.3 g/kg/dose BID, Day 1, Male, mean ± SD): 539 ± 215 µg·h/mL | Cmax ([3]; male, Bama, minipig, plasma, po, 0.3 g/kg, 0.3 g/kg/dose BID, Day 1, Male, mean ± SD, read-out: Cmax): 104 ± 52.1 µg/mL | Tmax ([3]; male, Bama, minipig, plasma, po, 0.3 g/kg, 0.3 g/kg/dose BID, Day 1, Male, median (range)): 4.3 h | AUC(0-t) ([3]; male, Bama, minipig, plasma, po, 0.3 g/kg, 0.3 g/kg/dose BID, Day 28, Male, mean ± SD): 585 ± 227 µg·h/mL

Source: US20230364118A1, “RIBITOL TREATMENT” (priority 2020, published 2023)
